In EP4803525A1 (Hefei Institute of Pharmaceutical Industry Co., Ltd., priority 2023, dated 2025):
Where two headings read alike, the source gives them in different places.

How the values were obtained:
hERG potassium channel = molecular target: T1, hERG potassium channel (Homo sapiens, UniProt Q12809); assay: hERG whole-cell patch-clamp test in HEK-293 cells; assay type: cell-based
T1 construct: host or cells: HEK-293
Experimental: HEK-293 cell line stably expressing hERG potassium channels (purchased from Creacell, catalog number: A-0320) was used. HEK293 cell lines were cultured in DMEM medium containing 10% fetal bovine serum and 0.8 mg/mL G418 at a temperature of 37°C and a carbon dioxide concentration of 5%. For patch-clamp assays, cells were separated using TrypLE™ Express before the assay. 4 × 10^3 cells were seeded onto coverslips and cultured in 24-well plates (final volume: 500 µL). The assays were performed 18 hours later.
Whole-cell patch-clamp test: after whole-cell sealing is achieved, the cell membrane voltage is clamped to -80mV. […] Data was collected every 10 seconds to observe the effect of the drug on hERG tail current. A -50 mV stimulus of 0.5 s was used as the leakage current detection. Experimental data were collected by the EPC-10 amplifier and stored in the software. Once the hERG current recorded in whole cells stabilized, drug administration began. Each drug concentration was administered for 5 minutes (or the current stabilized) before the next concentration was measured.

PDE4B2 = molecular target: T2, PDE4B2 (Homo sapiens, UniProt Q07343); assay: Inhibitory activity against PDE4B enzyme (AMP-Glo detection); assay type: biochemical
T2 construct: purchased BPS bioscience
T2 sequence (Q07343 1-564 isoform Q07343-2): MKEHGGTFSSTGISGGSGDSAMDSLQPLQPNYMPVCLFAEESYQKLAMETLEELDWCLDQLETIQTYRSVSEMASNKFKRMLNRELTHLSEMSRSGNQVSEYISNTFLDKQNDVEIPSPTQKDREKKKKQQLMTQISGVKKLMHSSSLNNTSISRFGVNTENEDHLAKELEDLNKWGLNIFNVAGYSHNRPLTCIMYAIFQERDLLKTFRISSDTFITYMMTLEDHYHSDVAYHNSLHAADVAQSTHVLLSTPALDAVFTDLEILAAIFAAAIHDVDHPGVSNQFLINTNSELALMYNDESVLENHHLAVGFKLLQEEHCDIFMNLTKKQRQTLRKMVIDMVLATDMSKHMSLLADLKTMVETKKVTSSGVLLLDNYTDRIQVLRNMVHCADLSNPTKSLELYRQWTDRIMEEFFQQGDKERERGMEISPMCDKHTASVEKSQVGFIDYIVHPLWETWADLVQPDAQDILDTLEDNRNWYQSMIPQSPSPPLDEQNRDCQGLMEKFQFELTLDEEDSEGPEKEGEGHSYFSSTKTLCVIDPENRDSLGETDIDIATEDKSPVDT
Experimental: 2.1 Compound preparation and treatment: all compounds were prepared into 50 mM stock solutions using dimethyl sulfoxide.
2.2 Preparation of working stock solution: a) the reference rolipram was serially diluted 3 times with dimethyl sulfoxide starting from 2 mmol, to a total of 10 concentrations. b) 2 mmol of the compound of the present invention was serially diluted three times with dimethyl sulfoxide (DMSO) to a total of 10 concentrations. c) A 200X positive control (2 mM rolipram) and a 200X vector control (100% dimethyl sulfoxide) were prepared. d) The compound plate was centrifuged at 1000 rpm for 1 minute.
• a) An Echo 550 was used to transfer 20 nL of compound dilution to each well of the detection plate. • b) The test plate was sealed and centrifuged at 1000 rpm for 1 minute. • c) 2X PDE4B2 was prepared in frozen PDE detection buffer. • d) 2 µL of 2X PDE4B2 was added to each well of the detection plate (prepared in step b). • e) The test plate was sealed and incubated for 10 minutes under RT conditions. • f) 2X Cyclic-3',5'-AMP was prepared in PDE detection buffer. • g) 2 µl of 2X Cyclic-3',5'-AMP (prepared in step f) was added to each well of the detection plate (prepared in step e) to initiate the reaction. Incubation was performed at room temperature for 60 minutes. • h) 4 µL of AMP-Glo reagent I was added. • i) 8 µL of AMP detection solution was added. Incubation was performed at room temperature for 60 minutes. • k) The RLU signal was read on the Envision 2105 reader.

[1] = HEK-293 cells stably expressing hERG, whole-cell patch clamp, 0.03-30 µM, read-out: h ERG IC50

T1 sequence (Q12809 whole entry): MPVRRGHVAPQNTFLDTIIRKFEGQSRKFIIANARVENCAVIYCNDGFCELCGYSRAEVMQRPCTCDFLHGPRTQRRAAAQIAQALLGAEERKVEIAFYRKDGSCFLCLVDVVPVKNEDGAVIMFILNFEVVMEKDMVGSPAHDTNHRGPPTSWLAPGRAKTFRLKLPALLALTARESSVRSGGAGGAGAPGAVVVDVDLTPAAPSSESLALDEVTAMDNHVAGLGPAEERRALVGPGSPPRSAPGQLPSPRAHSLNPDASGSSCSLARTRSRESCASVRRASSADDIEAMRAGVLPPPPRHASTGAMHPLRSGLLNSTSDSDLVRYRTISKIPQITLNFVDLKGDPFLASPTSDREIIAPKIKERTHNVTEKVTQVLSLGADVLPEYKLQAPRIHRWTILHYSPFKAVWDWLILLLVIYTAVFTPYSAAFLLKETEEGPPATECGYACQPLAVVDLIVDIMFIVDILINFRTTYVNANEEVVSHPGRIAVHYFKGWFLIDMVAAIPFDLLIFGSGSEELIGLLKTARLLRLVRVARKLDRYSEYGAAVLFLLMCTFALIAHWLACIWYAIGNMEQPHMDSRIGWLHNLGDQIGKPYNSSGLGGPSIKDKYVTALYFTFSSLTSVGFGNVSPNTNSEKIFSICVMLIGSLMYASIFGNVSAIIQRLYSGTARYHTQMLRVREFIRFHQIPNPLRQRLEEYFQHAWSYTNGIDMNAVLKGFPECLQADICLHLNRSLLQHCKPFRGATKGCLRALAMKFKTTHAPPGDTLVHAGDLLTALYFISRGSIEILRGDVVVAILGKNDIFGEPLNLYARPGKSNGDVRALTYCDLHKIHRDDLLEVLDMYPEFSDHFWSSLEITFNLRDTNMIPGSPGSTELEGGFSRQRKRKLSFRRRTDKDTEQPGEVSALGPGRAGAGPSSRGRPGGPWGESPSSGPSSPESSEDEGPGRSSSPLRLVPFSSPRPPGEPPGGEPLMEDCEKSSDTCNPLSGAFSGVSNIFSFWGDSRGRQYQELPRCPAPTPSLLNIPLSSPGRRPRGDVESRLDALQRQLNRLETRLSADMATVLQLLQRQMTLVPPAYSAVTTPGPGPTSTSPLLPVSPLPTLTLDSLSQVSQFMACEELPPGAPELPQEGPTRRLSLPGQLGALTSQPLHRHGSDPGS

Row | SMILES | IC50 (hERG potassium channel; [1]) [nM] | IC50 (PDE4B2) [nM] | IC50 (hERG potassium channel) [nM]
1 | [O-][S+]1CCc2nc(N3CC=C(c4ncc(Cl)cn4)CC3)nc(NC3(CO)CCC3)c21 (stereo not drawn) [Example 1, 2-(4-(5-chloropyrimidin-2-yl)-3,6-dihydropyridin-1(2H)-yl)-4-((1-(hydroxymethyl)cyclobutyl)amino)-6,7-dihydrothiopheno[3,2-d]pyrimidine-5-oxide] | 14500 | – | –
2 | [O-][S+]1CCc2nc(N3CCN(Cc4ncc(Cl)cn4)CC3)nc(NC3(CO)CCC3)c21 (stereo not drawn) [Example 2, 2-(4-((S-chloropyrimidin-2-yl)methyl)piperazin-1-yl)-4-((1-(hydroxymethyl)cyclobutyl)amino)-6,7-dihydrothiopheno[3,2-d]pyrimidine 5-oxide] | > 30000 | 20 to 100 | –
3 | O=C(c1ncc(Cl)cn1)N1CCN(c2nc3c(c(NC4(CO)CCC4)n2)[S+]([O-])CC3)CC1 (stereo not drawn) [Example 3, (5-chloropyrimidin-2-yl)(4-(4-((1-(hydroxymethyl)cyclobutyl)amino)-5-oxo-6,7-dihydrothieno[3,2-d]pyrimidin-2-yl)piperazin-1-yl)methanone] | > 30000 | – | –
4 | O=S1(=O)CCc2nc(N3CCC(c4ncc(Cl)cn4)CC3)nc(NC3(CO)CCC3)c21 [Example 4] | > 30000 | 20 to 100 | –
5 | Cc1ccc(O)c(C(=O)NC2CCN(c3nc4c(c(NC5(CO)CCC5)n3)[S+]([O-])CC4)CC2)c1 (stereo not drawn) [Example 7, 2-hydroxyl-N-(1-(4-((1-(hydroxymethyl)cyclobutyl)amino)-5-oxo-6,7-dihydrothiapheno[3,2-d]pyrimidin-2-yl)piperidin-4-yl)-5-methylbenzamide] | > 30000 | 1 to 20 | –
6 | [O-][S+]1CCc2nc(N3CC4(CN(c5ncc(Cl)cn5)C4)C3)nc(NC3(CO)CCC3)c21 (stereo not drawn) [Example 8] | > 30000 | 20 to 100 | –
7 | O=C(O)Cc1ccc(Nc2nc(N3CC=C(c4ncc(Cl)cn4)CC3)nc3c2[S+]([O-])CC3)cc1F (stereo not drawn) [Example 14, 2-(4-((2-(4-(5-chloropyrimidin-2-yl)-3,6-dihydropyridin-1(2H)-yl)-5-oxo-6,7-dihydrothiopheno[3,2-d]pyrimidin-4-yl)amino)-2-fluorophenyl)acetic acid] | > 30000 | – | –
8 | O=C(O)Cc1ccc(Nc2nc(N3CC=C(c4ncc(Cl)cn4)CC3)nc3c2S(=O)(=O)CCC3)cc1F [Example 18, 2-(4-((2-(4-(5-chloropyrimidin-2-yl)-3,6-dihydropyridin-1(2H)-yl)-5,5-dioxo-7,8-dihydro-6H -thiapyrano[3,2-d]pyrimidin-4-yl)amino)-2-fluorophenyl)acetic acid] | – | < 1 | –
9 | O=C(O)Cc1ccc(Nc2nc(N3CCC(c4ncc(Cl)cn4)CC3)nc3c2S(=O)(=O)CCC3)cc1Cl [Example 21, 2-(2-chloro-4-((2-(4-(5-chloropyrimidin-2-yl)piperidin-1-yl)-5,5-dioxo-7,8-dihydro-6H -thiapyrano[3,2-d]pyrimidin-4-yl)amino)phenyl)acetic acid] | > 30000 | 1 to 20 | –
10 | O=C(O)Cc1c(F)cc(Nc2nc(N3CCC(c4ncc(Cl)cn4)CC3)nc3c2S(=O)(=O)CCC3)cc1F [Example 22, 2-(4-((2-(4-(5-chloropyrimidin-2-yl)piperidin-1-yl)-5,5-dioxo-7,8-dihydro-6H -thiapyrano[3,2-d]pyrimidin-4-yl)amino)-2,6-difluorophenyl)acetic acid] | > 30000 | 1 to 20 | –
11 | O=C(O)C1(c2ccc(Nc3nc(N4CCC(c5ncc(Cl)cn5)CC4)nc4c3S(=O)(=O)CCC4)cc2F)CC1 [Example 23, 1-(4-((2-(4-(5-chloropyrimidin-2-yl)piperidin-1-yl)-5,5-dioxo-7,8-dihydro-6H-thiapyrano[3,2-d]pyrimidin-4-yl)amino)-2-fluorophenyl)cyclopropane-1-carboxylic acid] | – | 1 to 20 | –
12 | CC(C)(C)CNC(=O)Cc1ccc(Nc2nc(N3CCC(c4ncc(Cl)cn4)CC3)nc3c2S(=O)(=O)CCC3)cc1F [Example 24, 2-(4-((2-(4-(5-chloropyrimidin-2-yl)piperidin-1-yl)-5,5-dioxo-7,8-dihydro-6H -thiapyrano[3,2-d]pyrimidin-4-yl)amino)-2-fluorophenyl) -N-neopentylacetamide] | – | – | > 30000
13 | O=C(O)C1(c2ccc(Nc3nc(N4CCC(c5ncc(Cl)cn5)CC4)nc4c3S(=O)(=O)CCC4)cc2F)CCC1 [Example 25, 1-(4-((2-(4-(5-chloropyrimidin-2-yl)piperidin-1-yl)-5,5-dioxo-7,8-dihydro-6H -thiapyrano[3,2-d]pyrimidin-4-yl)amino)-2-fluorophenyl)cyclobutane-1-carboxylic acid] | – | 1 to 20 | –
14 | O=C(O)C1(c2ccc(Nc3nc(N4CC=C(c5ncc(Cl)cn5)CC4)nc4c3S(=O)(=O)CCC4)cc2F)CCC1 [Example 26, 1-(4-((2-(4-(5-chloropyrimidin-2-yl)-3,6-dihydropyridin-1(2H)-yl)-5,5-dioxo-7,8-dihydro-6H -thiapyrano[3,2-d]pyrimidin-4-yl)amino)-2-fluorophenyl)cyclobutane-1-carboxylic acid] | > 30000 | – | –
15 | O=C(O)Cc1ccc(Nc2nc(N3CCN(c4ncc(Cl)cn4)CC3)nc3c2S(=O)(=O)CCC3)cc1F [Example 27, 2-(4-((2-(4-(5-chloropyrimidin-2-yl)piperazin-1-yl)-5,5-dioxo-7,8-dihydro-6H -thiapyrano[3,2-d]pyrimidin-4-yl)amino)-2-fluorophenyl)acetic acid] | – | 1 to 20 | –
